Data: patent US9181181B2, “2-substituted-3-phenylpropionic acid derivatives and their use in the treatment of inflammatory bowel disease” (Albireo AB, priority 2007, dated 2015)

Tests used:
human PPARalpha = human PPARalpha (Homo sapiens (Human), UniProt Q07869); assay: Transactivation (reporter gene) assay, GAL4-PPARalpha LBD in U-2 OS cells; type: cell-based; conditions: 40 h incubation, 16 μM ETYA as 100% control, read-out: EC50 PPARα
Method: (§1) Transactivation Assay Expression vectors were prepared by inserting the ligand binding domain cDNA (complementary DNA) of human PPARalpha (amino acid 168-468) and human PPARgamma (amino acid 205-505), 3′ to and in frame with, the yeast GAL4 transcription factor DNA binding domain and the nuclear localization signal from the T-antigen of Polyoma Virus into the mammalian expression vector pSGS (Stratagene). The resulting expression vectors pSGGAL-PPARalpha and pSGGAL-PPARgamma were used in co-transfection experiments together with a modified pGL3 promoter plasmid (Promega) containing five copies of the UAS GAL4 recognition site. 2.5 μg pSGGAL-PPARalpha or pSGGAL-PPARgamma were mixed with 25 μg pGL3p […] and 22.5 μg pBluescript (Stratagene) in 0.95 mL ice cold PBS containing between 9-12 million U-2 OS (human osteosarcoma) cells. The cell/DNA mixture was incubated on ice for 5 minutes and then divided between two 0.4 cm cuvettes and electroporated at 960 μF, 230 V using a BioRad electroporator. The two electroporation mixes were combined in assay medium [Dulbecco's Modified Eagle Medium w/o phenol red, (Gibco 11880-028) including 10% FBS (Foetal Bovine Serum), 1% PEST (Penicillin & Streptomycin), 20 mM Hepes, 2 mM L-Glutamine and 0.36% Glucose (Gibco 31966-021)] at 0.32 million cells/ml. 25 μl diluted, electroporated cells, were seeded into 384-well plates and allowed to adhere for 3-4 h at 37° C., 5% CO2 in a cell culture incubator. Test compounds in DMSO were diluted 40 fold in assay medium. 7 μl of diluted compound was added to the adhered electroporated cells and incubation was continued for 40 h in a cell culture incubator. Cells were lysed by adding 32 μl/well LucLite (Packard) and incubated at room temperature for 15 minutes. Luciferase activity was measured using a luminometry protocol on a Wallac Victor2 plate reader. 16 μM ETYA was used as the 100% control for humanPPARalpha activity and 16 μM Pioglitazone was used as the 100% control for humanPPARgamma activity. In Vivo Assay Determination of Plasma Clearance and Oral Bioavailability in Hamster or Mouse

human PPARgamma = human PPARgamma (Homo sapiens (Human), UniProt P37231); assay: Transactivation (reporter gene) assay, GAL4-PPARgamma LBD in U-2 OS cells; type: cell-based; conditions: 40 h incubation, 16 μM Pioglitazone as 100% control, read-out: EC50 PPARγ
Method: as §1

Chain of human PPARalpha (Q07869 168-468): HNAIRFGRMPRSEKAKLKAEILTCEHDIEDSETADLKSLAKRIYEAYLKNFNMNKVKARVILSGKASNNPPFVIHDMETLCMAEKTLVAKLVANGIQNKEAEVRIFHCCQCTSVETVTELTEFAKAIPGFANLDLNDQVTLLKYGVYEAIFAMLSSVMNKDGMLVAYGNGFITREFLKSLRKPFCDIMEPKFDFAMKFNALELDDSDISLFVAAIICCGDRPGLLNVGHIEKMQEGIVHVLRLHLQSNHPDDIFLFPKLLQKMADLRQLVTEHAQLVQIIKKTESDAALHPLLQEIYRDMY
Chain of human PPARgamma (P37231 205-505): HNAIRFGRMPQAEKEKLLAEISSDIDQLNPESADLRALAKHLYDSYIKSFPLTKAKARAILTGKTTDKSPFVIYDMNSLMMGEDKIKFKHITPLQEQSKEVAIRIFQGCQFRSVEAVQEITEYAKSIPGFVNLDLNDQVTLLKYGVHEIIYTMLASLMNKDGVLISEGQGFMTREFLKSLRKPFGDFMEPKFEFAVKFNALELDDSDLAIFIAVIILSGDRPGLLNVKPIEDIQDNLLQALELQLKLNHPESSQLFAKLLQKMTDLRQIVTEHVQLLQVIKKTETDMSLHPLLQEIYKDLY

Structure (SMILES)	EC50 (human PPARalpha)	EC50 (human PPARgamma)
Cc1oc(-c2ccccc2)nc1CC(=O)OCc1ccc(CC(SCCc2ccc(F)cc2)C(=O)O)cc1 (single isomer, unassigned; (-)) [Example 19, (−)-2-[2-(4-Fluoro-phenyl)-ethylsulfanyl]-3-{4-[2-(5-methyl-2-phenyl-oxazol-4-yl)-acetoxymethyl]-phenyl}-propionic acid]	0.072 µM	0.47 µM
Cc1oc(-c2ccccc2)nc1CCOC(=O)c1ccc(CC(SCCc2ccc(F)cc2)C(=O)O)cc1 (single isomer, unassigned) [Example 20, 4-{(−)-2-Carboxy-2-[2-(4-fluoro-phenyl)-ethylsulfanyl]-ethyl}-benzoic acid 2-(5-methyl-2-phenyl-oxazol-4-yl)-ethyl ester]	0.84 µM	0.072 µM
O=C(Cc1ccc(SCc2ccccc2C(=O)O)cc1)OCc1ccc(C(F)(F)F)cc1 [Example 30, 2-[4-(4-Trifluoromethyl-benzyloxycarbonylmethyl)-phenylsulfanylmethyl]-benzoic acid]	0.16 µM	1.7 µM
CS(=O)(=O)Oc1ccc(CC(=O)OCCCc2ccc(CC(SCCc3ccc(F)cc3)C(=O)O)cc2)cc1 (centres unmarked) [Example 6, 2-[2-(4-Fluoro-phenyl)-ethylsulfanyl]-3-(4-{3-[2-(4-methanesulfonyloxy-phenyl)-acetoxy]-propyl}-phenyl)-propionic acid]	0.33 µM	18 µM
COc1ccc(CCOC(=O)Cc2ccc(SCc3ccccc3C(=O)O)cc2)cc1OC [Example 36, 2-{4-[2-(3,4-Dimethoxy-phenyl)-ethoxycarbonylmethyl]-phenylsulfanylmethyl}-benzoic acid]	21 µM	7 µM
CS(=O)(=O)Oc1ccc(CC(=O)OCCc2ccc(CC(SCCc3ccc(F)cc3)C(=O)O)cc2)cc1 (centres unmarked) [Example 5, 2-[2-(4-Fluoro-phenyl)-ethylsulfanyl]-3-(4-{2-[2-(4-methanesulfonyloxy-phenyl)-acetoxy]-ethyl}-phenyl)-propionic acid]	0.2 µM	6 µM
Cc1oc(-c2ccccc2)nc1CCOC(=O)c1ccc(CC(SCCc2ccc(F)cc2)C(=O)O)cc1 (centres unmarked) [Example 14, 4-{2-Carboxy-2-[2-(4-fluoro-phenyl)-ethylsulfanyl]-ethyl}-benzoic acid 2-(5-methyl-2 phenyl-oxazol-4-yl)-ethyl ester]	1.4 µM	0.11 µM
COc1ccc(CCOC(=O)Cc2cccc(SCc3ccccc3C(=O)O)c2)cc1OC [Example 44, 2-{3-[2-(3,4-Dimethoxy-phenyl)-ethoxycarbonylmethyl]-phenylsulfanylmethyl}-benzoic acid]	18 µM	11 µM
O=C(Cc1ccc(C(F)(F)F)cc1)OCc1ccc(SCc2ccccc2C(=O)O)cc1 [Example 29, 2-{4-[2-(4-Trifluoromethyl-phenyl)-acetoxymethyl]-phenylsulfanylmethyl}-benzoic acid]	0.029 µM	0.76 µM
COC(=O)C(Cc1ccccc1)OC(=O)Cc1ccc(SCc2ccccc2C(=O)O)cc1 (centres unmarked) [Example 37, 2-[4-(1-Methoxycarbonyl-2-phenylethoxycarbonylmethyl)phenylsulfanylmethyl]-benzoic acid]	2.2 µM	3.9 µM
